Here are results for ten compounds from patent publication US20240228465A1, “SUBSTITUTED PYRIDINE N-OXIDE DERIVATIVES USEFUL AS A FACTOR XIA INHIBITORS” (Janssen Pharmaceutica NV, priority 2021, published 2024).

Where two headings read alike, the source gives them in different places.

Assay [1] concerns the target human plasma kallikrein (Homo sapiens, UniProt P03952). Nature of the assay: Kallikrein inhibition assay utilizing a quenched AMC peptide substrate (FLINT). In kind it is biochemical. On the procedure:
Biological Example 2: Kallikrein Inhibition Assay Utilizing a Quenched AMC Peptide Substrate
A fluorescence intensity (FLINT) based assay was used to monitor inhibition of human plasma kallikrein. The peptide substrate, Z-Gly-Pro-Arg-AMC (Purchased from Bachem; Catalog #I-1150) was chosen based on its relatively low KM for kallikrein which enables running the assay at lower substrate concentrations to control background fluorescence. The kinetic parameters for this substrate were determined by fitting titration data to the Michaelis-Menten equation yielding a KM=40 μm, kcat=0.76 s^−1, and kcat/KM=18932 M^−1s^−1.
The Kallikrein FLINT assay was used with the following Z-Gly-Pro-Arg-AMC assay buffer: 50 mM Tris, pH 7.5, 100 mM NaCl, 5 mM CaCl2, 0.1 mg/mL BSA, 0.03% CHAPS. Assay buffer was prepared by mixing all ingredients fresh. 2× Z-Gly-Pro-Arg-AMC peptide substrate was prepared by diluting 10 mM stock into 1× assay buffer for a 100 μM working concentration (50 μM final concentration). The 2× kallikrein stock solution was prepared by diluting 14.76 μM stock in 1× assay buffer for a 4 nM working stock solution (2 nM final concentration).
Test compound(s) were run in an 11-point, 3-fold serial dilution with a final top compound concentration of 1 μM. Final DMSO in assay was 2%. Plasma kallikrein was pre-incubated for 30-minute with compound and then 50 μM substrate was added to initiate the reaction. The assay was run with either end point (EP) reads at 30 min or kinetic (KIN) reads at 5 min intervals over 30 minutes. The time course was linear using 2 nM kallikrein greater than 30 minutes. More specifically, the assay was run as follows: • 100 nL of 0.1 mM test compound was dispensed into black 384-well non-binding Greiner BioOne 784900 plate for 1 μM final concentration; • 5 μL of 1× assay buffer was dispensed to columns 24 (low control) and 5 μL 2× human kallikrein enzyme solution was dispensed to columns 1-23 (column 23 high control); • the plate was centrifuged with a “cover” plate at 500 rpm for 1 min • the plate was pre-incubated for 30 minutes at room temperature with plate covered; • 5 μL of 2× Z-Gly-Pro-Arg-AMC peptide substrate was dispensed into the entire plate, columns 1-24; • the plate was centrifuged with a “cover” plate at 500 rpm for 1 min; • the plate was read monitoring fluorescence intensity on the BMG PHERAStar at room temperature, using fluorescence module 340 nm/440 nm.
(§1) Percent inhibition (IC50) curves were generated per compound tested, and data was analyzed using a 4-parameter logistic fit using GeneData Screener. The relative fluorescence unit (RFU) values were normalized to percent inhibition using the following equation:
% inhibition=((HC−LC)−(compound−LC)/(HC−LC))*100 • where LC—low control=mean signal of human kallikrein enzyme or 100% inhibition of human kallikrein enzyme; HC—high control=mean signal of Factor XIa+Z-Gly-Pro-Arg-AMC peptide substrate with DMSO only.
(§2) An 11-point dose response curve for the test compound(s) was generated using GENDATA to determine IC50 value based on the following equation:
Y=Bottom+(Top−Bottom)/(1+10^((log IC50−X)*HillSlope)) • where Y is the % inhibition in the presence of X inhibitor concentration, Top=high control=mean signal of human kallikrein enzyme+Z-Gly-Pro-Arg-AMC peptide substrate with DMSO only; Bottom=low control—mean signal of no human kallikrein enzyme or 100% inhibition of human kallikrein enzyme; HillSlope—Hill coefficient; and IC50=concentration of compound with 50% inhibition in relation to top/high control.
Representative compounds of formula (I) of the present invention were tested according to the procedure described in Biological Example 1 and Biological Example 2 above, with results as listed in Table 3, below. Results listed in the (ER) column were measured using endpoint reads where a single fluorescence reading was measured for each well at a 30 min timepoint. […]

The target in assay [2] is Factor XIa (Homo sapiens, UniProt P03951). Nature of the assay: Factor XIa inhibition assay utilizing a fluorophore-quencher pair peptide substrate (FLINT). In kind it is biochemical.
Description: Biological Example 1: Factor XIa Inhibition Assay Utilizing a Fluorophore-Quencher Pair Peptide Substrate
A fluorescence intensity (FLINT) based assay was used to monitor inhibition of Factor XIa. The peptide substrate, 5Fam-KLTRAETV-K5Tamra (purchased from New England Peptide) was chosen based on the […]. Conversion of zymogen […]. The custom peptide used in this assay was based on the Arg146 cleavage site of FXI. The peptide substrate was designed with a fluorophore-quencher pair, where the fluorescence is quenched until FXIa cleaves the 8-mer peptide after the Arg residue. The substrate KM was fit to a substrate inhibition model whereby kcat=0.86 s^−1, KM=12.4 μM, Ki=61.6 μM with an enzymatic efficiency, and kcat/KM=69523 M^−1s^−1.
The Factor XIa FLINT assay was used with the following 5Fam-KLTRAETV-K5Tamra assay buffer: 50 mM Tris, pH 7.5, 100 mM NaCl, 5 mM CaCl2, 0.1 mg/mL BSA, 0.03% CHAPS. Assay buffer was prepared by mixing all ingredients fresh. 5Fam-KLTRAETV-K5Tamra peptide substrate was first prepared at 10 mM in 100% DMSO, then diluted to 3 mM in 100% DMSO. Assay buffer was then added directly to the 3 mM stock of substrate to prepare the 30 μM 2× working concentration (15 μM final concentration). The 2× Factor XIa stock solution was prepared by diluting 6.562 μM stock in 1× assay buffer for a […].
Test compound(s) were run in an 11-point, 3-fold serial dilution with a final top compound concentration of 100 nM. Final DMSO in assay was 2%. FXIa was preincubated with compound for 30-minutes and then substrate was added to initiate the reaction. The assay was run with either end point (EP) reads at 30 min or kinetic (KIN) reads at 5 min intervals over 30 minutes. The time course was linear using 100 μM FXIa greater than 30 minutes. More specifically, the assay was run as follows: • 100 nL of 0.01 mM test compound was dispensed into black 384-well non-binding Greiner BioOne 784900 plate for 0.1 μM final concentration; • 5 μL of 1× assay buffer was dispensed to column 24 (low control) and 5 μL 2× Factor XIa solution was dispensed to columns 1-23 (column 23 high control); • the plate was centrifuged with a “cover” plate at 500 rpm for 1 min • the plate was pre-incubated for 30 minutes at room temperature with plate covered; • 5 μL of 2× 5Fam-KLTRAETV-K5Tamra peptide substrate was dispensed into the entire plate, columns 1-24; • the plate was centrifuged with a “cover” plate at 500 rpm for 1 min; • the plate was read monitoring fluorescence intensity on the BMG PHERAStar at room temperature, using fluorescence module 485 nm/520 nm.
as §1
[formula] • where LC—low control=mean signal of no Factor XIa or 100% inhibition of Factor XIa; HC—high control=mean signal of Factor XIa+5Fam-KLTRAETV-K5Tamra peptide substrate with DMSO only.
as §2
[formula] • where Y is the % inhibition in the presence of X inhibitor concentration, Top=high control=mean signal of Factor XIa+5Fam-KLTRAETV-K5Tamra peptide substrate with DMSO only; Bottom=low control—mean signal of no Factor XIa or 100% inhibition of Factor XIa; HillSlope—Hill coefficient; and IC50=concentration of compound with 50% inhibition in relation to top/high control.
Representative compounds of formula (I) of the present invention were tested according to the procedure described in Biological Example 1 and Biological Example 2 above, with results as listed in Table 3, below. […]

Setting [3] is: end point read at 30 min, 30 min preincubation, read-out: Kallikrein (EP) IC50.
The mark [4] stands for this setting: end point read at 30 min, 30 min preincubation, read-out: FXIa (EP) IC50.
[5] abbreviates: kinetic reads at 5 min intervals over 30 min, 30 min preincubation, read-out: Kallikrein (KIN) IC50.
Where [6] appears, read: kinetic reads at 5 min intervals over 30 min, 30 min preincubation, read-out: FXIa (KIN) IC50.
Where [7] appears, read: kinetic reads, unit μM, read-out: Kallikrein (KIN) IC50.

Factor XIa, sequence (P03951 388-625 limits assumed): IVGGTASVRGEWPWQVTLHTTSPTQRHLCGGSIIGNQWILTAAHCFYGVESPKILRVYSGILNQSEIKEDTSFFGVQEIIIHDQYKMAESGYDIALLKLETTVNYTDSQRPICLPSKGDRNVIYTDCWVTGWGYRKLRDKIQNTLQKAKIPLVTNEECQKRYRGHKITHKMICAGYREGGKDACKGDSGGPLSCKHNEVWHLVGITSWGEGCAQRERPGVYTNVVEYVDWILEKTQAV
Factor XIa, sequence (P03951 19-387 partner limits assumed): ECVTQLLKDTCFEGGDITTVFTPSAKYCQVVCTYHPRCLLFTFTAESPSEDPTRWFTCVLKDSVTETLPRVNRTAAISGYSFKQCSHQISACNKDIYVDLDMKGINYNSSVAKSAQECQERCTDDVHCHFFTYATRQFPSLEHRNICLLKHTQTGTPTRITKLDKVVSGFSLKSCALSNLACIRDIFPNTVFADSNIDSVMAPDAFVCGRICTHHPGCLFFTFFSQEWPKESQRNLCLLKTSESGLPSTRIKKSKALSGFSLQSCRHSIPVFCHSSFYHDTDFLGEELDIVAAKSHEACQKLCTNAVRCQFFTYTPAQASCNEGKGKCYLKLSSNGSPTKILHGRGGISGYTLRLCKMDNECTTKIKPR
human plasma kallikrein, sequence (P03952 391-638 limits assumed): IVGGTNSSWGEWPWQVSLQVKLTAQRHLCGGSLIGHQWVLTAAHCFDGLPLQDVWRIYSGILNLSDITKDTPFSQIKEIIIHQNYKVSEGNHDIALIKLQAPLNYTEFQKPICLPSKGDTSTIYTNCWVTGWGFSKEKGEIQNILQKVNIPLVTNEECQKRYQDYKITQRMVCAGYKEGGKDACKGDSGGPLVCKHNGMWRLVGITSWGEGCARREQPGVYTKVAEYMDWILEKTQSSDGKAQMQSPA
human plasma kallikrein, sequence (P03952 20-390 partner limits assumed): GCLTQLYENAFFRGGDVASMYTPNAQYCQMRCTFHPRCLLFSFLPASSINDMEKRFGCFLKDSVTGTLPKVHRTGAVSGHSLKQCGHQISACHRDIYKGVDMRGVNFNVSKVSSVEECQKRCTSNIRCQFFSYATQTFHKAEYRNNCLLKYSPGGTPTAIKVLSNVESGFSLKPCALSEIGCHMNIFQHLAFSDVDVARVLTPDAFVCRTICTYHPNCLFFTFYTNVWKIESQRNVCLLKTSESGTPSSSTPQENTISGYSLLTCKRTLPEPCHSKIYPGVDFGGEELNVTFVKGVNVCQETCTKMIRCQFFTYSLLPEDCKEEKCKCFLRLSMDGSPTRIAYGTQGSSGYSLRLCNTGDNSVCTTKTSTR

Broadly, the IC50 is the concentration that inhibits the measured activity by half. In the case of `O=C(N[C@H]1C[C@H](O)C1)c1ccc(-c2cn(C(CC3CC3)c3ccc(-c4cc(Cl)ccc4-n4cnnn4)c[n+]3[O-])cn2)cc1` (mixture of isomers) [M2, 5-(5-Chloro-2-(1H-tetrazol-1-yl)phenyl)-2-(2-cyclopropyl-1-(4-(4-(((1R,3R)-3-hydroxycyclobutyl)carbamoyl)phenyl)-1H-imidazol-1-yl)ethyl)pyridine 1-oxide], the results for the IC50 in assay [1] (setting [3]) and in assay [2] (setting [4]) were 1.36 µM and 0.1 µM, respectively.
Consider `CCC(c1ccc(-c2c(-n3cnnn3)ccc(Cl)c2F)c[n+]1[O-])n1cnc(-c2ccc(NC(=O)OC)cc2)c1` (racemic) [M4, 5-(3-Chloro-2-fluoro-6-(1H-tetrazol-1-yl)phenyl)-2-(1-(4-(4-((methoxycarbonyl)amino)phenyl)-1H-imidazol-1-yl)propyl)pyridine 1-oxide], for which the figures for the IC50 in assay [1] (setting [5]) and in assay [2] (setting [6]) were 0.202 µM and 0.0121 µM, respectively.
For `[2H]C([2H])([2H])n1nccc1-c1cn(C(CCOC(F)F)c2ccc(-c3c(-n4cc(C(F)(F)F)nn4)ccc(Cl)c3F)c[n+]2[O-])cn1` (single isomer, unassigned) [M15, (R*)-5-(3-Chloro-2-fluoro-6-(4-(trifluoromethyl)-1H-1,2,3-triazol-1-yl)phenyl)-2-(3-(difluoromethoxy)-1-(4-(1-(methyl-d3)-1H-pyrazol-5-yl)-1H-imidazol-1-yl)propyl)pyridine 1-oxide], the IC50 in assay [1] (setting [7]) was over 1 µM; in assay [2] (setting [6]), over 0.1 µM.
In the case of `[2H]C([2H])([2H])n1nccc1-c1cn(C(CCOC(F)F)c2ccc(-c3c(-n4cc(C(F)(F)F)nn4)ccc(Cl)c3F)c[n+]2[O-])cn1` (single isomer, unassigned) [M16, (S*)-5-(3-Chloro-2-fluoro-6-(4-(trifluoromethyl)-1H-1,2,3-triazol-1-yl)phenyl)-2-(3-(difluoromethoxy)-1-(4-(1-(methyl-d3)-1H-pyrazol-5-yl)-1H-imidazol-1-yl)propyl)pyridine 1-oxide], the figures for the IC50 in assay [1] (setting [5]) and in assay [2] (setting [6]) were 0.0317 µM and 0.0005 µM, respectively.
The like results for `COC(=O)Nc1ccc(-c2cn(C(CC3CC3)c3ccc(-c4c(-n5cnnn5)ccc(Cl)c4F)c[n+]3[O-])nn2)cc1` (single isomer, unassigned) [T3, (R*)-5-(3-Chloro-2-fluoro-6-(1H-tetrazol-1-yl)phenyl)-2-(2-cyclopropyl-1-(4-(4-((methoxycarbonyl)amino)phenyl)-1H-1,2,3-triazol-1-yl)ethyl)pyridine 1-oxide] were, in that order, 0.269 µM and 0.0318 µM.
The like results for `COC(=O)Nc1ccc(-c2cn(C(CC3CC3)c3ccc(-c4c(-n5cnnn5)ccc(Cl)c4F)c[n+]3[O-])nn2)cc1` (single isomer, unassigned) [T4, (S*)-5-(3-Chloro-2-fluoro-6-(1H-tetrazol-1-yl)phenyl)-2-(2-cyclopropyl-1-(4-(4-((methoxycarbonyl)amino)phenyl)-1H-1,2,3-triazol-1-yl)ethyl)pyridine 1-oxide] were, in that order, 0.0149 µM and 0.001 µM.
Turning to `O=C(O)c1ccc(-c2cn(C(CC3CC3)c3ccc(-c4cc(Cl)ccc4-n4cnnn4)c[n+]3[O-])cn2)cc1` (centres unmarked) [M1, 2-(1-(4-(4-Carboxyphenyl)-1H-imidazol-1-yl)-2-cyclopropylethyl)-5-(5-chloro-2-(1H-tetrazol-1-yl)phenyl)pyridine 1-oxide], the IC50 in assay [1] (setting [3]) was found to be 0.306 µM; in assay [2] (setting [4]), 0.0071 µM.
With `COC(=O)Nc1ccc(-c2cn(C(CC3CC3)c3ccc(-c4c(-n5cnnn5)ccc(Cl)c4F)c[n+]3[O-])cn2)cc1` (centres unmarked) [M3, 5-(3-Chloro-2-fluoro-6-(1H-tetrazol-1-yl)phenyl)-2-(2-cyclopropyl-1-(4-(4-((methoxycarbonyl)amino)phenyl)-1H-imidazol-1-yl)ethyl)pyridine 1-oxide], the IC50 turned out to be 0.169 µM in assay [1] (setting [5]) and 0.0085 µM in assay [2] (setting [6]).
Taken in the same sequence, the figures for `[O-][n+]1cc(-c2c(-n3cnnn3)ccc(Cl)c2F)ccc1C(Cc1ccc(F)cc1)n1cnc(-c2ccncc2)c1` (centres unmarked) [M5, 5-(3-Chloro-2-fluoro-6-(1H-tetrazol-1-yl)phenyl)-2-(2-(4-fluorophenyl)-1-(4-(pyridin-4-yl)-1H-imidazol-1-yl)ethyl)pyridine 1-oxide] were 0.0017 µM and 0.0007 µM.
Turning to `[O-][n+]1cc(-c2c(-n3cc(C(F)(F)F)nn3)ccc(Cl)c2F)ccc1[C@H](CCOC(F)F)n1cnc(-c2ncnn2C(F)F)c1` [M6, (S)-5-(3-Chloro-2-fluoro-6-(4-(trifluoromethyl)-1H-1,2,3-triazol-1-yl)phenyl)-2-(3-(difluoromethoxy)-1-(4-(1-(difluoromethyl)-1H-1,2,4-triazol-5-yl)-1H-imidazol-1-yl)propyl)pyridine 1-oxide], the IC50 in assay [1] (setting [7]) was over 10 µM; in assay [2] (kinetic reads, unit μM printed in the cell, read-out: FXIa (KIN) IC50) it was over 10 µM.
